Measured values from US9580390B2, “Indazole compounds as kinase inhibitors and method of treating cancer with same” (University Health Network, priority 2011, dated 2017).
Like-named read-outs stand apart in the source and are kept apart here.

Key:
human TTK = target: T1, human TTK (Homo sapiens, UniProt P33981); assay: TTK inhibition assay (indirect ELISA); type: biochemical
T1 construct: amino terminal GST fusion of full length human TTK; purchased Invitrogen
T1 sequence (P33981 1-857): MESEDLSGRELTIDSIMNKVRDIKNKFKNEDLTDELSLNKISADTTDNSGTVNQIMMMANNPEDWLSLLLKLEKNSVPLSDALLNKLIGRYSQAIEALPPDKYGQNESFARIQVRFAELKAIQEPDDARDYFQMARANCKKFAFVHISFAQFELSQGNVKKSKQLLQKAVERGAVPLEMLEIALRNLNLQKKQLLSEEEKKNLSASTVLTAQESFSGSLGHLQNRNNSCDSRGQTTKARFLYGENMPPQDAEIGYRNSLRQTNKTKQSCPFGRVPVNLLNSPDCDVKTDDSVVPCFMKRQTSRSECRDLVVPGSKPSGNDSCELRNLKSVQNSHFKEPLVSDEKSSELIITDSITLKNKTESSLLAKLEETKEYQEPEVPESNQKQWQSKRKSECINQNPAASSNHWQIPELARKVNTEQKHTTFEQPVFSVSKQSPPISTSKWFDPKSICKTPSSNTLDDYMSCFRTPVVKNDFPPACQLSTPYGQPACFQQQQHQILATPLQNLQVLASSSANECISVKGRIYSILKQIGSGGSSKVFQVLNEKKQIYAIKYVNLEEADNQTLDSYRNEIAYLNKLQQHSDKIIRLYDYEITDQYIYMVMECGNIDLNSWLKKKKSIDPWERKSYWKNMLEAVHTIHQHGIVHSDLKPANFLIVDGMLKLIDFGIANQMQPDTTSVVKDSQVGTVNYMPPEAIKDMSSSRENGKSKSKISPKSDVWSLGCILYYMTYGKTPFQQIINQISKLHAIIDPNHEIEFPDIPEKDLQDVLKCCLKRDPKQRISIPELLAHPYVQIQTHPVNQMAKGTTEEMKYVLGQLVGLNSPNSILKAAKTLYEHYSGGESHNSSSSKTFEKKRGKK

[1] = tested on: colon cancer cells (HCT116); assay: Cancer cell line growth inhibition (SRB assay); type: cell-based; settings: read-out: Cancer Cell Line GI50 Range HCT116
TICs (Colon 12) = assay: Colon tumor-initiating cell growth inhibition (Alamar Blue); type: cell-based; settings: 9 days, read-out: Tumor Initiating Cell GI50 Range Colon 12
TICs (Ovarian 2393A) = assay: Ovarian tumor-initiating cell growth inhibition (Alamar Blue); type: cell-based; settings: 6 days, read-out: Tumor Initiating Cell GI50 Range Ovarain 2393A
[2] = tested on: ovarian cancer cells (PA-1); assay: Cancer cell line growth inhibition (SRB assay); type: cell-based; settings: read-out: Cancer Cell Line GI50 Range PA-1
[3] = Homo sapiens, HCT-116, HCT116 colon cancer cells, SRB assay
[4] = PA-1 ovarian cancer cells, SRB assay
[5] = 144 h, ovarian TICs, Alamar Blue

Row | IC50 (human TTK; read-out: TTK IC50 Range) | GI50 ([1]; Homo sapiens, HCT-116) | GI50 ([2]; Homo sapiens, PA-1) | GI50 (TICs (Colon 12); 216 h, Colon 12 TICs) | GI50 (TICs (Ovarian 2393A); 144 h, Ovarian 2393A TICs) | SMILES | further results
1 | < 100 nM | – | – | – | – | CN1CCC(Nc2ccc(-c3n[nH]c4ccc(NC(=O)C(c5ccsc5)N5CCCC5)cc34)cc2)CC1 (stereo not drawn) [Example A25] | GI50 ([1]; HCT116 colon cancer cells, SRB assay): < 100 nM; GI50 (TICs (Colon 12); colon TICs, Alamar Blue): 100 to 500 nM; GI50 (TICs (Ovarian 2393A); ovarian TICs, Alamar Blue): < 100 nM
2 | < 100 nM | – | – | – | – | COCCN1CCC(Oc2ccc(-c3n[nH]c4ccc(C(=O)N[C@H](c5cccs5)C5CC5)cc34)cc2)CC1 [Example A163] | GI50 [1, 3]: < 100 nM; GI50 [2, 4]: < 100 nM; GI50 (TICs (Colon 12); 216 h, colon TICs, Alamar Blue): 100 to 500 nM; GI50 (TICs (Ovarian 2393A); [5]): 100 to 500 nM
3 | – | – | – | – | – | O=C(Nc1ccc2[nH]nc(-c3ccc(N4CCC(O)CC4)cc3)c2c1)C(c1ccsc1)N1CCC1 (stereo not drawn) [Example A200, 2-(azetidin-1-yl)-N-(3-(4-(4-hydroxypiperidin-1-yl)phenyl)-1H-indazol-5-yl)-2-(thiophen-3-yl)acetamide] | GI50 [1, 3]: < 100 nM; GI50 [2, 4]: < 100 nM; GI50 (TICs (Colon 12); 216 h, colon TICs, Alamar Blue): 100 to 500 nM; GI50 (TICs (Ovarian 2393A); [5]): < 100 nM
4 | – | – | – | – | – | CC(C)(O)C1CCN(c2ccc(-c3n[nH]c4ccc(NC(=O)C(c5ccsc5)N5CCC5)cc34)cc2)CC1 (stereo not drawn) [Example A201, 2-(azetidin-1-yl)-N-(3-(4-(4-(2-hydroxypropan-2-yl)piperidin-1-yl)phenyl)-1H-indazol-5-yl)-2-(thiophen-3-yl)acetamide] | GI50 [1, 3]: < 100 nM; GI50 [2, 4]: < 100 nM; GI50 (TICs (Colon 12); 216 h, colon TICs, Alamar Blue): < 100 nM; GI50 (TICs (Ovarian 2393A); [5]): < 100 nM
5 | – | – | – | – | – | O=CN1CCC(Oc2ccc(-c3n[nH]c4ccc(C(=O)N[C@H](c5ccccn5)C5CC5)cc34)cc2)CC1 [Example A204, (S)-N-(cyclopropyl(pyridin-2-yl)methyl)-3-(4-((1-formylpiperidin-4-yl)oxy)phenyl)-1H-indazole-5-carboxamide] | GI50 [1, 3]: < 100 nM; GI50 [2, 4]: < 100 nM; GI50 (TICs (Colon 12); 216 h, colon TICs, Alamar Blue): < 100 nM; GI50 (TICs (Ovarian 2393A); [5]): < 100 nM
6 | – | < 100 nM | < 100 nM | 100 to 500 nM | 100 to 500 nM | CN1CCC(Oc2ccc(-c3n[nH]c4ccc(C(=O)NC(c5ccccn5)C5CCC5)cc34)cc2)CC1 (stereo not drawn) [Example A210, N-(cyclobutyl(pyridin-2-yl)methyl)-3-(4-((1-methylpiperidin-4-yl)oxy)phenyl)-1H-indazole-5-carboxamide] | –
7 | – | < 100 nM | < 100 nM | 100 to 500 nM | < 100 nM | O=CN1CCC(Oc2ccc(-c3n[nH]c4ccc(C(=O)N[C@H](c5ncccc5Cl)C5CC5)cc34)cc2)CC1 [Example A212, (S)-N-((3-chloropyridin-2-yl)(cyclopropyl)methyl)-3-(4-((1-formylpiperidin-4-yl)oxy)phenyl)-1H-indazole-5-carboxamide] | –
8 | – | < 100 nM | < 100 nM | > 500 nM | < 100 nM | CN1CCC(Oc2ccc(-c3n[nH]c4ccc(C(=O)N[C@H](c5ccccn5)C5CC5)cc34)cc2)CC1 [Example A214, (S)-N-(cyclopropyl(pyridin-2-yl)methyl)-3-(4-((1-methylpiperidin-4-yl)oxy)phenyl)-1H-indazole-5-carboxamide] | –
9 | – | < 100 nM | < 100 nM | < 100 nM | 100 to 500 nM | O=C(N[C@@H](c1ncccc1Cl)C1CC1)c1ccc2[nH]nc(-c3ccc(OC4CCN(C5COC5)CC4)cc3)c2c1 [Example A215, (R)-N-((3-chloropyridin-2-yl)(cyclopropyl)methyl)-3-(4-((1-(oxetan-3-yl)piperidin-4-yl)oxy)phenyl)-1H-indazole-5-carboxamide] | –
10 | – | < 100 nM | < 100 nM | < 100 nM | < 100 nM | O=C(N[C@H](c1ncccc1Cl)C1CC1)c1ccc2[nH]nc(-c3ccc(OC4CCN(C5COC5)CC4)cc3)c2c1 [Example A216, (S)-N-((3-chloropyridin-2-yl)(cyclopropyl)methyl)-3-(4-((1-(oxetan-3-yl)piperidin-4-yl)oxy)phenyl)-1H-indazole-5-carboxamide] | –
11 | < 100 nM | < 100 nM | < 100 nM | 100 to 500 nM | 100 to 500 nM | CC(C)(O)CN1CCC(Oc2ccc(-c3n[nH]c4ccc(C(=O)N[C@H](c5ccccn5)C5CC5)cc34)cc2)CC1 [Example A217, (S)-N-(cyclopropyl(pyridin-2-yl)methyl)-3-(4-((1-(2-hydroxy-2-methylpropyl)piperidin-4-yl)oxy)phenyl)-1H-indazole-5-carboxamide] | –
12 | < 100 nM | < 100 nM | < 100 nM | 100 to 500 nM | 100 to 500 nM | C[C@@H](O)CN1CCC(Oc2ccc(-c3n[nH]c4ccc(C(=O)N[C@H](c5ccccn5)C5CC5)cc34)cc2)CC1 [Example A221, N-((S)-cyclopropyl(pyridin-2-yl)methyl)-3-(4-((1-((R)-2-hydroxypropyl)piperidin-4-yl)oxy)phenyl)-1H-indazole-5-carboxamide] | –
13 | < 100 nM | – | – | – | – | CN1CCC(Oc2ccc(-c3n[nH]c4ccc(C(=O)NCC5(N6CCOCC6)CCCCC5)cc34)cc2)CC1 [Example A449, 3-(4-((1-methylpiperidin-4-yl)oxy)phenyl)-N-((1-morpholinocyclohexyl)methyl)-1H-indazole-5-carboxamide] | GI50 [1, 3]: < 100 nM; GI50 (TICs (Colon 12); 216 h, colon TICs, Alamar Blue): < 100 nM; GI50 (TICs (Ovarian 2393A); [5]): 100 to 500 nM

Row | SMILES | IC50 (human TTK; read-out: TTK IC50 Range) | GI50 ([1]; Homo sapiens, HCT-116) | GI50 ([2]; Homo sapiens, PA-1) | GI50 (TICs (Colon 12); 216 h, Colon 12 TICs) | GI50 (TICs (Ovarian 2393A); 144 h, Ovarian 2393A TICs) | further results
14 | CN1[C@@H]2CC[C@H]1C[C@@H](Oc1ccc(-c3n[nH]c4ccc(C(=O)N[C@H](c5ccccn5)C5CC5)cc34)cc1)C2 [Example A213, N-((S)-cyclopropyl(pyridin-2-yl)methyl)-3-(4-(((1R,3R,5S)-8-methyl-8-azabicyclo[3.2.1]octan-3-yl)oxy)phenyl)-1H-indazole-5-carboxamide] | – | < 100 nM | < 100 nM | > 500 nM | < 100 nM | –
15 | CC(C)C[C@H](NC(=O)c1ccc2[nH]nc(-c3ccc(N4C5CCC4CC(O)C5)cc3)c2c1)c1ccccn1 (stereo partly drawn) [Example A301, 3-(4-((1R,3S,5S)-3-hydroxy-8-azabicyclo[3.2.1]octan-8-yl)phenyl)-N-((S)-3-methyl-1-(pyridin-2-yl)butyl)-1H-indazole-5-carboxamide] | – | < 100 nM | < 100 nM | < 100 nM | < 100 nM | IC50 (human TTK): < 100 nM
16 | CC(C)C[C@@H](NC(=O)c1ccc2[nH]nc(-c3ccc(N4C5CCC4CC(O)C5)cc3)c2c1)c1ccccn1 (stereo partly drawn) [Example A305, 3-(4-((1R,3R,5S)-3-hydroxy-8-azabicyclo[3.2.1]octan-8-yl)phenyl)-N-((R)-3-methyl-1-(pyridin-2-yl)butyl)-1H-indazole-5-carboxamide] | – | < 100 nM | < 100 nM | < 100 nM | < 100 nM | IC50 (human TTK): < 100 nM
17 | O=C(N[C@H](c1ccccn1)C1CC1)c1ccc2[nH]nc(-c3ccc(N4C5CCC4CC(O)C5)cc3)c2c1 (stereo partly drawn) [Example A307, N-((S)-cyclopropyl(pyridin-2-yl)methyl)-3-(4-((1R,3R,5S)-3-hydroxy-8-azabicyclo[3.2.1]octan-8-yl)phenyl)-1H-indazole-5-carboxamide] | < 100 nM | – | – | – | – | GI50 ([1]; HCT116): < 100 nM; GI50 ([2]; PA-1): < 100 nM; GI50 (TICs (Colon 12); Colon 12 TICs): 100 to 500 nM; GI50 (TICs (Ovarian 2393A); Ovarian 2393A TICs): 100 to 500 nM
18 | O=C(N[C@H](c1ccccn1)C1CC1)c1ccc2[nH]nc(-c3ccc(OC4CC5CCC(C4)N5C4COC4)cc3)c2c1 (stereo partly drawn) [Example A320, N-((S)-cyclopropyl(pyridin-2-yl)methyl)-3-(4-(((1R,3R,5S)-8-(oxetan-3-yl)-8-azabicyclo[3.2.1]octan-3-yl)oxy)phenyl)-1H-indazole-5-carboxamide] | < 100 nM | < 100 nM | < 100 nM | < 100 nM | 100 to 500 nM | –
19 | O=CN1C2CCC1CC(Oc1ccc(-c3n[nH]c4ccc(C(=O)N[C@H](c5ccccn5)C5CC5)cc34)cc1)C2 (stereo partly drawn) [Example A322, N-((S)-cyclopropyl(pyridin-2-yl)methyl)-3-(4-(((1R,3R,5S)-8-formyl-8-azabicyclo[3.2.1]octan-3-yl)oxy)phenyl)-1H-indazole-5-carboxamide] | < 100 nM | < 100 nM | < 100 nM | < 100 nM | < 100 nM | –
